According to patent US20230159527A1, “COMPOUNDS AS BCL-2 INHIBITORS” (Fochon Pharmaceuticals, Ltd., priority 2020, published 2023):

Assays:
RS4;11 cells = assay: Cell proliferation assay, RS4;11 cells (MTS, 72 h); assay type: cell-based; conditions: Homo sapiens, RS4;11 cell proliferation
Experimental: MTS testing kit was purchased from Promega. The RPMI-1640, Fetal bovine serum and Penicillin-Streptomycin were purchased from Gibco. Dimethyl sulfoxide (DMSO) was purchased from Sigma.
To investigate whether a compound is able to inhibit the activity of Bcl-2 in cells, a mechanism-based assay using RS4;11 (ATCC® CRL-1873™) cell was developed. In this assay, inhibition of Bcl-2 was detected by the inhibition of RS4;11 cells proliferation. RS4;11 cells were cultured in culture flasks to 40-80% confluence in RPMI-1640 plus 10% fetal bovine serum. Cells were collected and plated onto 96-well plates at desired cell density (30000 cells/well). Plates were incubated overnight at 37° C., with 5% CO2 to adhere. Compounds were added to the plates, and the final compound concentrations were 10000, 3333, 1111, […], 41, 14, 4.6 and 1.5 nM. Plates plated with RS4;11 cells were placed at 37° C., with 5% CO2 for 72 h. 20 μl MTS/100 μl medium mixture solution were added to each well and incubate the plates for exactly 2 hours. The reaction was stopped by adding 25 μl 10% SDS per well. Measure absorbance at 490 nm and 650 nm (reference wavelength). IC50 was calculated using GraphPad Prism 5.0.

DoHH2 cells = assay: Cell proliferation assay, DoHH2 cells (MTS, 120 h); assay type: cell-based; conditions: Homo sapiens, DOHH-2
How it was run: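 DoHH2 cells in RPMI-1640 with 10% FBS were plated at 5000/well and rested 4 h. They were then exposed to compound at nine final concentrations (10000 to 1.5 nM) for 120 h at 37 °C. Viability was read by MTS (2 h, A490) and IC50 derived by curve fitting.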

CS(C)(=O)=NC1CCC(CNc2ncc(S(=O)(=O)NC(=O)c3ccc(N4CCC5(CC4)CC(N4CCC[C@@H]4c4ccccc4C4CC4)C5)cc3Oc3cnc4[nH]ccc4c3)cc2[N+](=O)[O-])CC1 (single isomer, unassigned) [Example A-9b, (R or S)-2-((1H-pyrrolo[2,3-b]pyridin-5-yl)oxy)-4-(2-(2-(2-cyclopropyl-phenyl)pyrrolidin-1-yl)-7-azaspiro [3.5]nonan-7-yl)-N-((6-(((4-((dimethyl(oxo)-λ^6-sulfanylidene)amino)cyclohexyl)methyl)amino)-5-nitropyridin-3-yl)sulfonyl)benzamide]
IC50 (RS4;11 cells): ≤ 1 nM

O=C(NS(=O)(=O)c1cnc(NCC2(F)CCOCC2)c([N+](=O)[O-])c1)c1ccc(N2CCC3(CC2)CC(N2CCC[C@H]2c2ccccc2C2CC2)C3)cc1Oc1cnc2[nH]ccc2c1 [Example A-32a, (S)-2-((1H-pyrrolo[2,3-b]pyridin-5-yl)oxy)-4-(2-(2-(2-cyclopropyl-phenyl)pyrrolidin-1-yl)-7-azaspiro [3.5]nonan-7-yl)-N-((6-(((4-fluoro-tetrahydro-2H-pyran-4-yl)methyl)amino)-5-nitropyridin-3-yl)sulfonyl)benzamide]
IC50 (DoHH2 cells): ≤ 1 nM | IC50 (RS4;11 cells): ≤ 1 nM

CCS(=O)(CC)=NC1CCC(CNc2ncc(S(=O)(=O)NC(=O)c3ccc(N4CCC5(CC4)CC(N4CCC[C@@H]4c4ccccc4C4CC4)C5)cc3Oc3cnc4[nH]ccc4c3)cc2[N+](=O)[O-])CC1 (stereo partly drawn) [Example A-2b, (R)-2-((1H-pyrrolo[2,3-b]pyridin-5-yl)oxy)-4-(2-(2-(2-cyclopropylphenyl)pyrrolidin-1-yl)-7-azaspiro[3.5]nonan-7-yl)-N-((6-(((4-((diethyl(oxo)-λ^6-sulfanylidene)amino)cyclohexyl)methyl)amino)-5-nitropyridin-3-yl)sulfonyl)benzamide]
IC50 (DoHH2 cells): ≤ 1 nM | IC50 (RS4;11 cells): ≤ 1 nM

O=C(NS(=O)(=O)c1cnc(NCC2C3COCC23)c([N+](=O)[O-])c1)c1ccc(N2CCC3(CC2)CC(N2CCC[C@H]2c2ccccc2C2CC2)C3)cc1Oc1cnc2[nH]ccc2c1 (stereo partly shown) [Example A-30a, 2-((1H-pyrrolo[2,3-b]pyridin-5-yl)oxy)-N-((6-(((3-oxabicyclo[3.1.0]hexan-6-yl)methyl)amino)-5-nitro-pyridin-3-yl)sulfonyl)-4-(2-((5)-2-(2-cyclopropylphenyl)pyrrolidin-1-yl)-7-azaspiro[3.5]nonan-7-yl) benzamide]
IC50 (RS4;11 cells): ≤ 1 nM

O=C(NS(=O)(=O)c1cc([N+](=O)[O-])c(NCC2CCOCC2)cn1)c1ccc(N2CCC3(CC2)CC(N2CCC[C@@H]2c2ccccc2C2CC2)C3)cc1Oc1cnc2[nH]ccc2c1 [Example B-1b, (R)-2-((1H-pyrrolo[2,3-b]pyridin-5-yl)oxy)-4-(2-(2-(2-cyclopropylphenyl)pyrrolidin-1-yl)-7-azaspiro[3.5]nonan-7-yl)-N-((4-nitro-5-(((tetrahydro-2H-pyran-4-yl)methyl)amino)pyridin-2-yl)sulfonyl)benzamide]
IC50 (DoHH2 cells): ≤ 1 nM | IC50 (RS4;11 cells): ≤ 1 nM

O=C(NS(=O)(=O)c1cnc(NCC2(F)CCOCC2)c([N+](=O)[O-])c1)c1ccc(N2CCC3(CC2)CC(N2CCC[C@@H]2c2ccccc2C2CC2)C3)cc1Oc1cnc2[nH]ccc2c1 [Example A-32b, (R)-2-((1H-pyrrolo[2,3-b]pyridin-5-yl)oxy)-4-(2-(2-(2-cyclopropyl-phenyl)pyrrolidin-1-yl)-7-azaspiro [3.5]nonan-7-yl)-N-((6-(((4-fluoro-tetrahydro-2H-pyran-4-yl)methyl)amino)-5-nitropyridin-3-yl)sulfonyl)benzamide]
IC50 (DoHH2 cells): ≤ 1 nM | IC50 (RS4;11 cells): ≤ 1 nM

CC(C)c1ccccc1[C@H]1CCCN1C1CC2(CCN(c3ccc(C(=O)NS(=O)(=O)c4cc([N+](=O)[O-])c5c(n4)OC[C@H](Cc4ccccc4)N5)c(Oc4cnc5[nH]ccc5c4)c3)CC2)C1 [Example B-3b, 2-((1H-pyrrolo[2,3-b]pyridin-5-yl)oxy)-N-(((S)-2-benzyl-8-nitro-2,3-dihydro-1H-pyrido[2,3-b][1,4]oxazin-6-yl)sulfonyl)-4-(2-((R)-2-(2-isopropylphenyl)pyrrolidin-1-yl)-7-azaspiro[3.5]nonan-7-yl) benzamide]
IC50 (DoHH2 cells): ≤ 1 nM | IC50 (RS4;11 cells): ≤ 1 nM

Cc1nc(NC[C@H]2CC[C@](C)(O)CC2)c([N+](=O)[O-])cc1S(=O)(=O)NC(=O)c1ccc(N2CCC3(CC2)CC(N2CCOC[C@H]2c2ccccc2C(C)C)C3)cc1Oc1cnc2[nH]ccc2c1 (single isomer, unassigned) [Example A-131, 2-((1H-pyrrolo[2,3-b]pyridin-5-yl)oxy)-N-((6-((((1r,4r)-4-hydroxy-4-methylcyclohexyl)methyl)amino)-2-methyl-5-nitropyridin-3-yl)sulfonyl)-4-(2-((R or S)-3-(2-isopropylphenyl)morpholino)-7-azaspiro[3.5]nonan-7-yl) benzamide]
IC50 (DoHH2 cells): ≤ 1 nM | IC50 (RS4;11 cells): ≤ 1 nM

CCc1ccccc1[C@H]1CCCN1C1CC2(CCN(c3ccc(C(=O)NS(=O)(=O)c4cnc(NCC5CCC(N=S6(=O)CCOCC6)CC5)c([N+](=O)[O-])c4)c(Oc4cnc5[nH]ccc5c4)c3)CC2)C1 (stereo partly drawn) [Example A-21b, (R)-2-((1H-pyrrolo[2,3-b]pyridin-5-yl)oxy)-4-(2-(2-(2-ethylphenyl)pyrrolidin-1-yl)-7-azaspiro[3.5]nonan-7-yl)-N-((5-nitro-6-(((4-((4-oxido-1,4λ^6-oxathian-4-ylidene)amino)cyclohexyl)methyl)amino)pyridin-3-yl)sulfonyl)benzamide]
IC50 (DoHH2 cells): ≤ 1 nM | IC50 (RS4;11 cells): ≤ 1 nM

CC1(O)CCC(CNc2ncc(S(=O)(=O)NC(=O)c3ccc(N4CCC5(CC4)CC(N4CCC[C@H]4c4ccccc4C4CC4)C5)cc3Oc3cnc4[nH]ccc4c3)cc2[N+](=O)[O-])CC1 (stereo partly drawn) [Example A-1a, (S)-2-((1H-pyrrolo[2,3-b]pyridin-5-yl)oxy)-4-(2-(2-(2-cyclopropylphenyl)pyrrolidin-1-yl)-7-azaspiro[3.5]nonan-7-yl)-N-((6-(((4-hydroxy-4-methylcyclohexyl)methyl)amino)-5-nitropyridin-3-yl)sulfonyl)benzamide]
IC50 (RS4;11 cells): ≤ 1 nM

CC(C)c1ccccc1[C@@H]1CCCN1C1CC2(CCN(c3ccc(C(=O)NS(=O)(=O)c4cnc(NCC5C6COCC56)c([N+](=O)[O-])c4)c(Oc4cnc5[nH]ccc5c4)c3)CC2)C1 (stereo in doubt) [Example A-27a, 2-((1H-pyrrolo[2,3-b]pyridin-5-yl)oxy)-N-((6-(((3-oxabicyclo[3.1.0]hexan-6-yl)methyl)amino)-5-nitro-pyridin-3-yl)sulfonyl)-4-(2-((5)-2-(2-isopropylphenyl)pyrrolidin-1-yl)-7-azaspiro[3.5]nonan-7-yl) benzamide]
IC50 (RS4;11 cells): ≤ 1 nM

CC(C)c1ccccc1[C@@H]1CCCN1C1CC2(CCN(c3ccc(C(=O)NS(=O)(=O)c4cnc(NCC5CCC(C)(O)CC5)c([N+](=O)[O-])c4)c(Oc4cnc5[nH]ccc5c4)c3)CC2)C1 (stereo partly shown) [Example A-6a, (5)-2-((1H-pyrrolo[2,3-b]pyridin-5-yl)oxy)-N-((6-(((4-hydroxy-4-methylcyclohexyl)methyl)amino)-5-nitropyridin-3-yl)sulfonyl)-4-(2-(2-(2-isopropylphenyl)pyrrolidin-1-yl)-7-azaspiro[3.5]nonan-7-yl) benzamide]
IC50 (RS4;11 cells): ≤ 1 nM

O=C(NS(=O)(=O)c1cnc(NCC2CCOCC2)c([N+](=O)[O-])c1)c1ccc(N2CCC3(CC2)CC(N2CCNC[C@H]2c2ccccc2C2CC2)C3)cc1Oc1cnc2[nH]ccc2c1 (single isomer, unassigned) [Example A-36a, (R or S)-2-((1H-pyrrolo[2,3-b]pyridin-5-yl)oxy)-4-(2-(2-(2-cyclopropyl-phenyl)piperazin-1-yl)-7-azaspiro [3.5]nonan-7-yl)-N-((5-nitro-6-(((tetrahydro-2H-pyran-4-yl)methyl)amino)pyridin-3-yl)sulfonyl) benzamide]
IC50 (RS4;11 cells): ≤ 1 nM

CCc1ccccc1[C@@H]1CCCN1C1CC2(CCN(c3ccc(C(=O)NS(=O)(=O)c4cnc(NCC5CCC(C)(O)CC5)c([N+](=O)[O-])c4)c(Oc4cnc5[nH]ccc5c4)c3)CC2)C1 (stereo partly drawn) [Example A-8a, (S)-2-((1H-pyrrolo[2,3-b]pyridin-5-yl)oxy)-4-(2-(2-(2-ethylphenyl)pyrrolidin-1-yl)-7-azaspiro[3.5]nonan-7-yl)-N-((6-(((4-hydroxy-4-methylcyclohexyl)methyl)amino)-5-nitropyridin-3-yl)sulfonyl) benzamide]
IC50 (RS4;11 cells): ≤ 1 nM

O=C(NS(=O)(=O)c1cnc(NCC2CCSCC2)c([N+](=O)[O-])c1)c1ccc(N2CCC3(CC2)CC(N2CCOC[C@H]2c2ccccc2C2CC2)C3)cc1Oc1cnc2[nH]ccc2c1 (single isomer, unassigned) [Example A-98, (R or S)-2-((1H-pyrrolo[2,3-b]pyridin-5-yl)oxy)-4-(2-(3-(2-cyclopropyl-phenyl)morpholino)-7-azaspiro[3.5]nonan-7-yl)-N-((5-nitro-6-(((tetra-hydro-2H-thiopyran-4-yl)methyl)amino)pyridin-3-yl)sulfonyl) benzamide]
IC50 (RS4;11 cells): ≤ 1 nM
